One experiment concerns cells. The experiment can be described thus: Cell images of cells co-cultured with the components (FITC-insulin transmission). It is filed as cell-based. The conditions noted are these: cells co-cultured with the component; stained with Cld 4, E-cadherin and DAPI; FIG. 3.
Experiment [1] in a line: Pharmacokinetic test of nano/micro bubbles (plasma insulin and blood glucose). Type of experiment: in vivo. Particulars: subcutaneous injection of insulin 5 IU/kg; 0 to 10 hours; FIG. 5b. The procedure: Pharmacokinetic Test of Nano/Micro Bubbles In the present example, groups comprising nano/micro bubbles of the present invention (containing 30 IU/kg of insulin), oral administration (30 IU/kg of insulin) and subcutaneous injection of insulin (5 IU/kg) are compared. The change rates in plasma insulin and blood glucose concentration from 0 to 10 hours after subjects taking insulin or injected with insulin were recorded respectively, and the results are illustrated in FIGS. 5a and 5b.

For `O=C(O)CN(CCN1CC(=O)OC(=O)C1)CCN1CC(=O)OC(=O)C1` [DTPA dianhydride, diethylenetriaminepentaacetic dianhydride], the “transmission of FITC-insulin (paracellular / transcellular pathway)” value in the experiment with cells was “can promote transmission of FITC-insulin via paracellular pathway”.
For the molecule `CCCCCCCCCCCCOS(=O)(=O)[O-].[Na+]` [SDS, sodium dodecyl sulfate], the “transmission of FITC-insulin (paracellular / transcellular pathway)” value in the experiment on cells is “can promote transmission of FITC-insulin via both of paracellular pathway and transcellular pathway”.
Take insulin: the “change rate of the blood glucose” value in experiment [1] is “rapidly declined and rose again”.
